A value given as a limit tells only on which side of the number the result lay.

This assay concerns the target T1, CRTH2 (KB8 cells) (Homo sapiens, UniProt Q9Y5Y4).
T1 construct: host or cells: KB8 cells (human CRTH2 expression cell)
T1 sequence (Q9Y5Y4 1-395): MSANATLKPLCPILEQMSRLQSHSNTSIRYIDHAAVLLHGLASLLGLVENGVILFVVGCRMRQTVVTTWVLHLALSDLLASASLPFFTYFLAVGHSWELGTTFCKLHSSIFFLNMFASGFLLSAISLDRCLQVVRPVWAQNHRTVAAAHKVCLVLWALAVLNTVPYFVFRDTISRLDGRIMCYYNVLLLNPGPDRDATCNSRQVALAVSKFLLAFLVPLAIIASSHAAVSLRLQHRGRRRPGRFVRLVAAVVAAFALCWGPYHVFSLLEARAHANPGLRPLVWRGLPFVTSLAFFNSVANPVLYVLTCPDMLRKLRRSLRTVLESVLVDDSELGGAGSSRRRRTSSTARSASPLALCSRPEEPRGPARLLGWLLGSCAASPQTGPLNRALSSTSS
In words: CRTH2 antagonist test (PGD2-induced intracellular calcium ion concentration increase in KB8 cells). The class given is cell-based. The note with it: PGD2 final concentration 100 nM, Fluo-4-AM fluorescence, read-out: antagonist activity (IC50 value, inhibition of calcium ion concentration increase). How it is done:
The antagonist activity of the compound of the present invention was considered by using the intracellular calcium ion concentration increase reaction induced when the prostaglandin D2 was added to KB8 cells.
Fluo-4-AM (4-(6-acetoxymethoxy-2,7-difluoro-3-oxo-9-xanthenyl)-4′-methyl-2,2′-(ethylenedioxy)dianilide-N,N,N′,N′-tetraacetic acid tetrakis(acetoxymethyl) ester (SIGMA, final concentration: 1 μM) was added to KB8 cells, and the cells were incubated at 37° C. for 30 min, washed with phosphate buffer (Invitrogen), and then suspended in Hank's balanced salt solution (Invitrogen)) containing a reaction buffer solution (10 mM HEPES (Invitrogen), and 1 mM calcium chloride (SIGMA). The suspension was dispensed in a 96 well plate (Nunc) so that 2×10^5 cells/well were placed, and the compound of the present invention and PGD2 (final concentration: 100 nM) were added. The fluorescence intensity thereof was measured over time by using FDSS6000 (Hamamatsu Photonics), and thus the maximum fluorescence intensity value “d” was obtained. The same procedure was carried out in the absence of the compound, and the maximum fluorescence intensity value “e” was obtained; and the same procedure was carried out in the absence of the compound and […], and the maximum fluorescence intensity value “f” was obtained.
The calcium ion concentration increase inhibition rate of a compound was calculated by the following calculation formula: Inhibitory rate(%)=[1−(d−f)/(e−f)]×100
That is to say, by using calcium ion concentration increase inhibitory rates of compounds to be tested having various concentrations, the IC50 value was calculated according to a dose-dependent inhibition curve analyzed by using XLfit (IDBS) as a data analysis software, and the value was defined as an indicator of the antagonist activity. In Tables, A denotes an inhibitory activity showing the IC50 value of less than 50 nM; B denotes an inhibitory activity showing the IC50 value of 50 nM or greater and less than 500 nM; C denotes an inhibitory activity showing the IC50 value of 500 nM or greater and less than 1000 nM; and D denotes an inhibitory activity showing the IC50 value of 1000 nM or greater.
As to `O=C(O)Cc1cnc(C(=O)c2ccc(NC(=O)c3ccccc3Cl)cc2)c2ccccc12` [Example 24], the IC50 was at least 1 µM.
The figure for `O=C(O)Cc1cnc(C(=O)c2ccc(NC(=O)c3ccccc3Br)cc2)c2ccccc12` [Example 25] is at least 1 µM.
As for `Cc1ccccc1C(=O)Nc1ccc(C(=O)c2ncc(CC(=O)O)c3ccccc23)cc1` [Example 26], the figure is 0.05 to 0.5 µM; as for `O=C(O)Cc1cnc(C(=O)c2ccc(NC(=O)c3ccc(F)cc3)cc2)c2ccccc12` [Example 28], under 0.05 µM.
The figure for `O=C(O)Cc1cnc(C(=O)c2ccc(NC(=O)c3cccc(Cl)c3Cl)cc2)c2ccccc12` [Example 30] is 0.5 to 1 µM; for `O=C(O)Cc1cnc(C(=O)c2ccc(NC(=O)c3ccc(Cl)c(F)c3)cc2)c2ccccc12` [Example 31] it is under 0.05 µM.
Regarding `O=C(O)Cc1cnc(C(=O)c2ccc(NC(=O)c3ccc(Br)cc3)cc2)c2ccccc12` [Example 32], the IC50 is under 0.05 µM.
The figure for `O=C(O)Cc1cnc(C(=O)c2ccc(NC(=O)c3c(Cl)cccc3Cl)cc2)c2ccccc12` [Example 33] is at least 1 µM; for `O=C(O)Cc1cnc(C(=O)c2ccc(NC(=O)c3ccc(F)c(F)c3)cc2)c2ccccc12` [Example 35] it is under 0.05 µM.
As for `O=C(O)Cc1cnc(C(=O)c2ccc(NC(=O)c3c(F)cccc3Cl)cc2)c2ccccc12` [Example 36], the figure is at least 1 µM.
The figure for `O=C(O)Cc1cnc(C(=O)c2ccc(NC(=O)c3cc(Cl)cc(Cl)c3)cc2)c2ccccc12` [Example 37] is under 0.05 µM.
Consider `O=C(O)Cc1cnc(C(=O)c2ccc(NC(=O)c3ccccc3)cc2)c2ccccc12` [Example 38], for which the IC50 is under 0.05 µM.
As for `O=C(O)Cc1cnc(C(=O)c2ccc(NC(=O)c3ccccc3F)cc2)c2ccccc12` [Example 39], the figure is 0.5 to 1 µM; as for `COc1ccccc1C(=O)Nc1ccc(C(=O)c2ncc(CC(=O)O)c3ccccc23)cc1` [Example 40], at least 1 µM.
As for `O=C(O)Cc1cnc(C(=O)c2ccc(NC(=O)c3ccc(Cl)cc3Cl)cc2)c2ccccc12` [Example 41], the figure is 0.05 to 0.5 µM.
As for `O=C(O)Cc1cnc(C(=O)c2ccc(NC(=O)c3cc(F)ccc3Cl)cc2)c2ccccc12` [Example 42], the figure is 0.5 to 1 µM; as for `O=C(O)Cc1cnc(C(=O)c2ccc(NC(=O)c3cc(Cl)ccc3Cl)cc2)c2ccccc12` [Example 43], 0.05 to 0.5 µM; as for `Cc1ccc(C)c(C(=O)Nc2ccc(C(=O)c3ncc(CC(=O)O)c4ccccc34)cc2)c1` [Example 44], 0.05 to 0.5 µM.
In the case of `O=C(O)Cc1cnc(C(=O)c2ccc(NC(=O)c3cc(Cl)cc(Cl)c3Cl)cc2)c2ccccc12` [Example 45], the IC50 lay in the range of 0.05 to 0.5 µM.
The figure for `O=C(O)Cc1cnc(C(=O)c2ccc(NC(=O)c3cccc4ccccc34)cc2)c2ccccc12` [Example 46] is 0.05 to 0.5 µM; for `O=C(O)Cc1cnc(C(=O)c2ccc(NC(=O)c3ccc(F)cc3Cl)cc2)c2ccccc12` [Example 47] it is 0.5 to 1 µM.
As for `O=C(O)Cc1cnc(C(=O)c2ccc(NC(=O)c3c(Cl)cc(Cl)cc3Cl)cc2)c2ccccc12` [Example 48], the figure is at least 1 µM.
As to `Cc1ccc(Cl)c(C(=O)Nc2ccc(C(=O)c3ncc(CC(=O)O)c4ccccc34)cc2)c1F` [Example 49], the IC50 is at least 1 µM.
With `O=C(O)Cc1cnc(C(=O)c2ccc(NC(=O)c3ccncc3)cc2)c2ccccc12` [Example 51], the IC50 was at least 1 µM.
The figure for `O=C(O)Cc1cnc(C(=O)c2ccc(NC(=O)c3ccc(F)c(F)c3F)cc2)c2ccccc12` [Example 52] is 0.05 to 0.5 µM.
On to `O=C(O)Cc1cnc(C(=O)c2ccc(NC(=O)CC34CC5CC(CC(C5)C3)C4)cc2)c2ccccc12` [Example 53], for which the IC50 was in the range of 0.05 to 0.5 µM.
Take `O=C(O)Cc1cnc(C(=O)c2ccc(NC(=O)c3ccc4c(c3)CCCC4)cc2)c2ccccc12` [Example 54]: the IC50 was under 0.05 µM.
`O=C(O)Cc1cnc(C(=O)c2ccc(NC(=O)c3ncccn3)cc2)c2ccccc12` [Example 55]: the IC50 was 0.5 to 1 µM.
The figure for `O=C(O)Cc1cnc(C(=O)c2ccc(NC(=O)c3cc(F)c(Cl)cc3Cl)cc2)c2ccccc12` [Example 56] is 0.05 to 0.5 µM; for `O=C(O)Cc1cnc(C(=O)c2ccc(NC(=O)c3cscn3)cc2)c2ccccc12` [Example 58] it is at least 1 µM; for `O=C(O)Cc1cnc(C(=O)c2ccc(NC(=O)C3(c4ccc(Cl)cc4)CCCC3)cc2)c2ccccc12` [Example 59] it is 0.05 to 0.5 µM.
As for `O=C(O)Cc1cnc(C(=O)c2ccc(NC(=O)C3Cc4ccccc4C3)cc2)c2ccccc12` [Example 60], the figure is 0.05 to 0.5 µM.
As for `Cc1cc(F)ccc1C(=O)Nc1ccc(C(=O)c2ncc(CC(=O)O)c3ccccc23)cc1` [Example 61], the figure is 0.05 to 0.5 µM; as for `Cc1ccc(F)cc1C(=O)Nc1ccc(C(=O)c2ncc(CC(=O)O)c3ccccc23)cc1` [Example 62], 0.05 to 0.5 µM.
As for `COc1cc(C(=O)Nc2ccc(C(=O)c3ncc(CC(=O)O)c4ccccc34)cc2)cc(OC)c1OC` [Example 63], the IC50 lay within 0.05 to 0.5 µM.
The figure for `C=Cc1ccc(C(=O)Nc2ccc(C(=O)c3ncc(CC(=O)O)c4ccccc34)cc2)cc1` [Example 64] is under 0.05 µM.
Turning to `CC(C)=CC(=O)Nc1ccc(C(=O)c2ncc(CC(=O)O)c3ccccc23)cc1` [Example 65], the IC50 lay within 0.5 to 1 µM.
Consider `O=C(O)Cc1cnc(C(=O)c2ccc(NC(=O)c3cccnc3)cc2)c2ccccc12` [Example 66], for which the IC50 was at least 1 µM.
As for `O=C(O)Cc1cnc(C(=O)c2ccc(NC(=O)c3ccc4ncccc4c3)cc2)c2ccccc12` [Example 67], the figure is 0.05 to 0.5 µM.
The figure for `Cc1ccc(S(=O)(=O)NCC(=O)Nc2ccc(C(=O)c3ncc(CC(=O)O)c4ccccc34)cc2)cc1` [Example 68] is 0.05 to 0.5 µM; for `O=C(O)Cc1cnc(C(=O)c2ccc(NC(=O)c3cnccn3)cc2)c2ccccc12` [Example 69] it is at least 1 µM; for `O=C(O)Cc1cnc(C(=O)c2ccc(NC(=O)c3cccc(Cl)c3F)cc2)c2ccccc12` [Example 70] it is 0.05 to 0.5 µM.
The figure for `O=C(O)Cc1cnc(C(=O)c2ccc(NC(=O)c3cccc(F)c3)cc2)c2ccccc12` [Example 71] is 0.05 to 0.5 µM.
As to `COc1cccc(C(=O)Nc2ccc(C(=O)c3ncc(CC(=O)O)c4ccccc34)cc2)c1` [Example 72], the IC50 was under 0.05 µM.
In the case of `Cc1cccc(C(=O)Nc2ccc(C(=O)c3ncc(CC(=O)O)c4ccccc34)cc2)c1` [Example 73], the IC50 was under 0.05 µM.
Regarding `CS(=O)(=O)c1ccc(C(=O)Nc2ccc(C(=O)c3ncc(CC(=O)O)c4ccccc34)cc2)cc1` [Example 74], the IC50 lay within 0.05 to 0.5 µM.
As for `O=C(O)Cc1cnc(C(=O)c2ccc(NC(=O)C3CCCCC3)cc2)c2ccccc12` [Example 76], the IC50 was in the range of 0.05 to 0.5 µM.
As for `O=C(O)Cc1cnc(C(=O)c2ccc(NC(=O)CCC3CCCCC3)cc2)c2ccccc12` [Example 77], the figure is under 0.05 µM; as for `C/C(=C\c1ccccc1)C(=O)Nc1ccc(C(=O)c2ncc(CC(=O)O)c3ccccc23)cc1` [Example 78], under 0.05 µM.
The figure for `O=C(O)Cc1cnc(C(=O)c2ccc(NC(=O)c3ccc(C(=O)O)cc3)cc2)c2ccccc12` [Example 79] is at least 1 µM.
For `CCCCC(=O)Nc1ccc(C(=O)c2ncc(CC(=O)O)c3ccccc23)cc1` [Example 80], the IC50 lay in the range of 0.05 to 0.5 µM.
As for `O=C(O)Cc1cnc(C(=O)c2ccc(NC(=O)C3CCOCC3)cc2)c2ccccc12` [Example 81], the figure is at least 1 µM; as for `COc1ccc(/C=C/C(=O)Nc2ccc(C(=O)c3ncc(CC(=O)O)c4ccccc34)cc2)cc1` [Example 84], under 0.05 µM; as for `O=C(O)Cc1cnc(C(=O)c2ccc(NC(=O)c3c[nH]c4ccccc34)cc2)c2ccccc12` [Example 85], under 0.05 µM.
As for `O=C(O)Cc1cnc(C(=O)c2ccc(NC(=O)c3cnc4ccccc4n3)cc2)c2ccccc12` [Example 86], the figure is 0.05 to 0.5 µM; as for `O=C(O)Cc1cnc(C(=O)c2ccc(NC(=O)COc3ccc(Cl)cc3)cc2)c2ccccc12` [Example 87], 0.05 to 0.5 µM.
As for `O=C(O)Cc1cnc(C(=O)c2ccc(NC(=O)c3csc4ccccc34)cc2)c2ccccc12` [Example 88], the figure is under 0.05 µM.
